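Each compound was tested at five concentrations against cells in 96-well plates for 48 hours. GI50 = concentration required for 50% inhibition of growth. TGI marks complete inhibition of growth.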

One test relates to NCI-H460 lung. Nature of the test: NCI anticancer screen, dose series, 48 h.
As for `CNC(=O)c1ccccc1CC1(O)c2ccccc2Oc2ccccc21`, the GI50 was 25 µM and the TGI is 82.6 µM.

With `O=C(CCN1CCN(c2cnc3ccccc3n2)CC1)c1csc2ccccc12`, the GI50 is greater than 100 µM and the TGI is greater than 100 µM.

Consider `COc1cc2c3c(cccc3c1)C(=O)N(CCN1CCCC1)C2=O`, for which the GI50 is 2.26 µM and the TGI worked out at 11.3 µM.

Take `N/C(CC(=O)Nc1cc(C(F)(F)F)ccc1Cl)=N\O`: the TGI is greater than 100 µM.

Consider `CC(CO)(CO)N=Cc1cc(I)cc(I)c1O`, for which the TGI worked out at 55 µM.

Consider `CC1(C)N=C(N)N=C(N)N1c1ccc(CCCCc2ccc(S(=O)(=O)F)cc2)cc1`, for which the GI50 was 0.153 µM and the TGI was 13.3 µM.

As to `Oc1ccccc1/C=N/Nc1ccc2ccccc2n1`, the GI50 was 3.38 µM and the TGI worked out at 20.3 µM.

`COc1ccc(/C=C/C=C(/C#N)C(N)=S)cc1`: the GI50 is 23.7 µM and the TGI stood at 65.9 µM.

Consider `CCC(C)C1NC(=O)c2nc(oc2-c2ccccc2)-c2csc(n2)-c2csc(n2)-c2nc(oc2C)-c2coc(n2)CNC(=O)C(C(C)CC)NC1=O` (centres undefined), for which the GI50 was 0.0102 µM and the TGI worked out at 0.0268 µM.

On to `CCCCCCCCCCCCCC(=S)NCCCC[C@H](NC(=O)OCc1ccccc1)C(=O)Nc1ccccc1`, for which the GI50 is 4.02 µM and the TGI was greater than 100 µM.

As for `COC(=O)C1OC(O[C@H]2CCC3(C)C(CCC4(C)C3CC=C3C5CC(C)(C)CCC5(C(=O)O)CC[C@]34C)C2(C)C)C(O)C(OC2OC(CO)C(O)C(O)C2O)C1O` (some centres undefined), the GI50 is 11.5 µM and the TGI was greater than 33.3 µM.

Consider `CN1CCN(CC#Cc2cccc(C(=O)c3cnn(-c4ccc(F)cc4)c3N)c2)CC1`, for which the GI50 is greater than 25 µM and the TGI is greater than 25 µM.

The test system of another test is SN12C renal. Nature of the test: NCI anticancer screen, dose series, 48 h.
With `COc1ccc(-c2nn(-c3cccc(Cl)c3)cc2C2CC(c3ccccc3)=NN2C(C)=O)cc1` (centres undefined), the GI50 is 8.35 µM and the TGI is greater than 100 µM.

Take `CC(=O)OCC1OC(O[C@@H]2C[C@H]3C(C)(C)[C@H](OC(C)=O)CC[C@]3(C)[C@H]3CCC4=C([C@@H](C)C[C@@H](O)[C@H](O)C(C)(C)O)CC[C@@]4(C)[C@@]32C)C(O)C(O)C1O` (some centres undefined): the GI50 is 16.4 µM and the TGI turned out to be 30 µM.

`CC(C)(C)OC(=O)n1cc(CNC(=S)Nc2ccccc2)c2ccccc21`: the GI50 was 15.1 µM and the TGI came out at 28.4 µM.

`CN=C(N)N/N=C(\c1ccccc1)c1ccc(Br)cc1`: the GI50 was 0.451 µM and the TGI stood at 6.27 µM.

Regarding `CNC(=O)c1ccccc1CC1(O)c2ccccc2Oc2ccccc21`, the GI50 was 26 µM and the TGI was greater than 100 µM.

As for `O=C(CCN1CCN(c2cnc3ccccc3n2)CC1)c1csc2ccccc12`, the GI50 is 79.6 µM and the TGI was greater than 100 µM.

On to `COc1cc2c3c(cccc3c1)C(=O)N(CCN1CCCC1)C2=O`, for which the GI50 is 2.41 µM and the TGI came out at 78.5 µM.

Consider `N/C(CC(=O)Nc1cc(C(F)(F)F)ccc1Cl)=N\O`, for which the TGI is greater than 100 µM.

`CC(CO)(CO)N=Cc1cc(I)cc(I)c1O` registered a TGI of 31.4 µM.

Regarding `CC1(C)N=C(N)N=C(N)N1c1ccc(CCCCc2ccc(S(=O)(=O)F)cc2)cc1`, the GI50 is 1.2 µM and the TGI is 17.7 µM.

On to `Oc1ccccc1/C=N/Nc1ccc2ccccc2n1`, for which the GI50 was 4.92 µM and the TGI was greater than 100 µM.

As for `COc1ccc(/C=C/C=C(/C#N)C(N)=S)cc1`, the GI50 was 35.4 µM and the TGI was greater than 100 µM.

With `CCCCCCCCCCCCCC(=S)NCCCC[C@H](NC(=O)OCc1ccccc1)C(=O)Nc1ccccc1`, the GI50 is 3.81 µM and the TGI is greater than 100 µM.

Consider `COC(=O)C1OC(O[C@H]2CCC3(C)C(CCC4(C)C3CC=C3C5CC(C)(C)CCC5(C(=O)O)CC[C@]34C)C2(C)C)C(O)C(OC2OC(CO)C(O)C(O)C2O)C1O` (some centres undefined), for which the GI50 was 6.34 µM and the TGI was determined as 11.4 µM.

For `CN1CCN(CC#Cc2cccc(C(=O)c3cnn(-c4ccc(F)cc4)c3N)c2)CC1`, the GI50 is greater than 25 µM and the TGI was greater than 25 µM.

A further test deals with 786-0 renal. Briefly: NCI anticancer screen, dose series, 48 h.
With `COc1ccc(-c2nn(-c3cccc(Cl)c3)cc2C2CC(c3ccccc3)=NN2C(C)=O)cc1` (centres undefined), the GI50 was 6.87 µM and the TGI stood at 97.2 µM.

On to `CC(=O)OCC1OC(O[C@@H]2C[C@H]3C(C)(C)[C@H](OC(C)=O)CC[C@]3(C)[C@H]3CCC4=C([C@@H](C)C[C@@H](O)[C@H](O)C(C)(C)O)CC[C@@]4(C)[C@@]32C)C(O)C(O)C1O` (some centres undefined), for which the GI50 was 18.2 µM and the TGI worked out at 32.7 µM.

`CC(C)(C)OC(=O)n1cc(CNC(=S)Nc2ccccc2)c2ccccc21`: the GI50 was 17.7 µM and the TGI amounted to 34.5 µM.

Consider `CN=C(N)N/N=C(\c1ccccc1)c1ccc(Br)cc1`, for which the GI50 was 0.523 µM and the TGI is 4.91 µM.

`CNC(=O)c1ccccc1CC1(O)c2ccccc2Oc2ccccc21`: the GI50 was 20.3 µM and the TGI was determined as 46.4 µM.

For the compound `O=C(CCN1CCN(c2cnc3ccccc3n2)CC1)c1csc2ccccc12`, the GI50 was 28.4 µM and the TGI was 79.5 µM.

Regarding `COc1cc2c3c(cccc3c1)C(=O)N(CCN1CCCC1)C2=O`, the GI50 was 2.92 µM and the TGI is greater than 100 µM.

In the case of `N/C(CC(=O)Nc1cc(C(F)(F)F)ccc1Cl)=N\O`, the TGI is greater than 100 µM.

`CC(CO)(CO)N=Cc1cc(I)cc(I)c1O` yielded a TGI of 30.9 µM.

With `CC1(C)N=C(N)N=C(N)N1c1ccc(CCCCc2ccc(S(=O)(=O)F)cc2)cc1`, the GI50 is 0.64 µM and the TGI amounted to 19.1 µM.

Take `Oc1ccccc1/C=N/Nc1ccc2ccccc2n1`: the GI50 is 5.81 µM and the TGI is greater than 100 µM.

On to `COc1ccc(/C=C/C=C(/C#N)C(N)=S)cc1`, for which the GI50 was 33.3 µM and the TGI is greater than 100 µM.

As to `CCC(C)C1NC(=O)c2nc(oc2-c2ccccc2)-c2csc(n2)-c2csc(n2)-c2nc(oc2C)-c2coc(n2)CNC(=O)C(C(C)CC)NC1=O` (centres undefined), the GI50 is 0.0499 µM and the TGI worked out at 0.172 µM.

For the compound `CCCCCCCCCCCCCC(=S)NCCCC[C@H](NC(=O)OCc1ccccc1)C(=O)Nc1ccccc1`, the GI50 was 5.43 µM and the TGI was greater than 100 µM.

For `COC(=O)C1OC(O[C@H]2CCC3(C)C(CCC4(C)C3CC=C3C5CC(C)(C)CCC5(C(=O)O)CC[C@]34C)C2(C)C)C(O)C(OC2OC(CO)C(O)C(O)C2O)C1O` (some centres undefined), the GI50 was 6.36 µM and the TGI turned out to be 11.6 µM.

With `CN1CCN(CC#Cc2cccc(C(=O)c3cnn(-c4ccc(F)cc4)c3N)c2)CC1`, the GI50 is greater than 25 µM and the TGI was greater than 25 µM.

The next test relates to HCC-2998 colon. Nature of the test: NCI anticancer screen, dose series, 48 h.
For the compound `COc1ccc(-c2nn(-c3cccc(Cl)c3)cc2C2CC(c3ccccc3)=NN2C(C)=O)cc1` (centres undefined), the GI50 was greater than 100 µM and the TGI is greater than 100 µM.

As for `CC(=O)OCC1OC(O[C@@H]2C[C@H]3C(C)(C)[C@H](OC(C)=O)CC[C@]3(C)[C@H]3CCC4=C([C@@H](C)C[C@@H](O)[C@H](O)C(C)(C)O)CC[C@@]4(C)[C@@]32C)C(O)C(O)C1O` (some centres undefined), the GI50 is 12 µM and the TGI came out at 25.2 µM.

Consider `CN=C(N)N/N=C(\c1ccccc1)c1ccc(Br)cc1`, for which the GI50 was 0.38 µM and the TGI came out at 1.37 µM.

Turning to `CNC(=O)c1ccccc1CC1(O)c2ccccc2Oc2ccccc21`, the GI50 is 29 µM and the TGI amounted to 91.3 µM.

As for `O=C(CCN1CCN(c2cnc3ccccc3n2)CC1)c1csc2ccccc12`, the GI50 is greater than 100 µM and the TGI is greater than 100 µM.

As for `COc1cc2c3c(cccc3c1)C(=O)N(CCN1CCCC1)C2=O`, the GI50 is 2.63 µM and the TGI worked out at 7.19 µM.

On to `CC1(C)N=C(N)N=C(N)N1c1ccc(CCCCc2ccc(S(=O)(=O)F)cc2)cc1`, for which the GI50 was 4.55 µM and the TGI was determined as 26.7 µM.

Take `Oc1ccccc1/C=N/Nc1ccc2ccccc2n1`: the GI50 was 6.59 µM and the TGI was greater than 100 µM.

For `CCC(C)C1NC(=O)c2nc(oc2-c2ccccc2)-c2csc(n2)-c2csc(n2)-c2nc(oc2C)-c2coc(n2)CNC(=O)C(C(C)CC)NC1=O` (centres undefined), the GI50 was 0.0543 µM and the TGI stood at 0.249 µM.

Take `CCCCCCCCCCCCCC(=S)NCCCC[C@H](NC(=O)OCc1ccccc1)C(=O)Nc1ccccc1`: the GI50 was 5.69 µM and the TGI is greater than 100 µM.

As to `COC(=O)C1OC(O[C@H]2CCC3(C)C(CCC4(C)C3CC=C3C5CC(C)(C)CCC5(C(=O)O)CC[C@]34C)C2(C)C)C(O)C(OC2OC(CO)C(O)C(O)C2O)C1O` (some centres undefined), the GI50 was 7.14 µM and the TGI turned out to be 12.4 µM.

`CN1CCN(CC#Cc2cccc(C(=O)c3cnn(-c4ccc(F)cc4)c3N)c2)CC1`: the GI50 was greater than 25 µM and the TGI is greater than 25 µM.

The next test deals with MDA-MB-435. Nature of the test: NCI anticancer screen, dose series, 48 h.
In the case of `COc1ccc(-c2nn(-c3cccc(Cl)c3)cc2C2CC(c3ccccc3)=NN2C(C)=O)cc1` (centres undefined), the GI50 was greater than 100 µM and the TGI was greater than 100 µM.

As to `CC(=O)OCC1OC(O[C@@H]2C[C@H]3C(C)(C)[C@H](OC(C)=O)CC[C@]3(C)[C@H]3CCC4=C([C@@H](C)C[C@@H](O)[C@H](O)C(C)(C)O)CC[C@@]4(C)[C@@]32C)C(O)C(O)C1O` (some centres undefined), the GI50 was 16 µM and the TGI was determined as 29.5 µM.

Consider `CC(C)(C)OC(=O)n1cc(CNC(=S)Nc2ccccc2)c2ccccc21`, for which the GI50 was 12.2 µM and the TGI was determined as 30.1 µM.

Consider `CN=C(N)N/N=C(\c1ccccc1)c1ccc(Br)cc1`, for which the GI50 is 0.179 µM and the TGI turned out to be 0.511 µM.

For `CNC(=O)c1ccccc1CC1(O)c2ccccc2Oc2ccccc21`, the GI50 is 3.32 µM and the TGI was determined as 19.9 µM.

For the compound `O=C(CCN1CCN(c2cnc3ccccc3n2)CC1)c1csc2ccccc12`, the GI50 was greater than 100 µM and the TGI was greater than 100 µM.

In the case of `COc1cc2c3c(cccc3c1)C(=O)N(CCN1CCCC1)C2=O`, the GI50 is 2.81 µM and the TGI was found to be 8.25 µM.

`N/C(CC(=O)Nc1cc(C(F)(F)F)ccc1Cl)=N\O`: the TGI is greater than 100 µM.

For the compound `CC(CO)(CO)N=Cc1cc(I)cc(I)c1O`, the TGI was determined as 40.3 µM.

For `CC1(C)N=C(N)N=C(N)N1c1ccc(CCCCc2ccc(S(=O)(=O)F)cc2)cc1`, the GI50 was 0.506 µM and the TGI came out at 17 µM.

`Oc1ccccc1/C=N/Nc1ccc2ccccc2n1`: the GI50 was 6.42 µM and the TGI was greater than 100 µM.

Regarding `COc1ccc(/C=C/C=C(/C#N)C(N)=S)cc1`, the GI50 is 21.6 µM and the TGI is 77.1 µM.

As to `CCC(C)C1NC(=O)c2nc(oc2-c2ccccc2)-c2csc(n2)-c2csc(n2)-c2nc(oc2C)-c2coc(n2)CNC(=O)C(C(C)CC)NC1=O` (centres undefined), the GI50 was 0.0464 µM and the TGI was 0.163 µM.

`CCCCCCCCCCCCCC(=S)NCCCC[C@H](NC(=O)OCc1ccccc1)C(=O)Nc1ccccc1`: the GI50 is 5.3 µM and the TGI was greater than 100 µM.

On to `COC(=O)C1OC(O[C@H]2CCC3(C)C(CCC4(C)C3CC=C3C5CC(C)(C)CCC5(C(=O)O)CC[C@]34C)C2(C)C)C(O)C(OC2OC(CO)C(O)C(O)C2O)C1O` (some centres undefined), for which the GI50 was 13.3 µM and the TGI was greater than 33.3 µM.

Consider `CN1CCN(CC#Cc2cccc(C(=O)c3cnn(-c4ccc(F)cc4)c3N)c2)CC1`, for which the GI50 was greater than 25 µM and the TGI was greater than 25 µM.

The record behind these values is PubChem BioAssay (NCI).
